# Values of other authors in US20020137728A1, “Topical oral care compositions” (Oraceutical LLC, priority 2001, published 2002).
# Key:
# [1] = test system: serum alkaline phosphatase enzyme; conditions: single dose intraperitoneally, Wistar rats with artificially induced periodontal lesions
# [2] = peroxide tooth whitening composition on tooth surface
time to reach vital pulp tissue from initial contact on the tooth surface [2] [min],Compound,serum alkaline phosphatase enzyme [1]
–,O=C1O[C@H]([C@@H](O)CO)C(O)=C1O [ascorbic acid],increase
≤ 15,OO [hydrogen peroxide],–
